For one experiment, the target named is IRE1 (Homo sapiens, UniProt O75460). The experiment can be described thus: Immunoblot of endogenous IRE1 depletion in KMS27 cells. The experiment is classed as cell-based. On the set-up: Immunoblot (IB) analysis of endogenous IRE1 depletion in AMO1 cells; endogenous in cells; host or cells: AMO1, KMS27, H929. As to the method: Cells were lysed in buffer containing 20 mM HEPES 7.2, 150 mM NaCl, and 1% Triton X-100, supplemented with fresh protease and phosphatase inhibitors (Invitrogen, #78440), cleared by centrifugation at 12,000 × g for 10 min, and analyzed by BCA protein assay (Thermo Fisher Scientific, #23227). Equal protein amounts were loaded, separated by SDS-PAGE, electrotransferred to nitrocellulose membranes using the iBLOT2 system (Invitrogen), and blocked in 5% nonfat milk solution for 60 min. Membranes were probed with primary antibodies at 1:1000 dilution in 5% milk at 4 °C overnight. Signal was detected using appropriate horseradish peroxidase (HRP)-conjugated secondary antibodies at 1:10,000 in 5% milk at room temperature for 1–2 h. Bands were visualized by the Azure 600 western blot imaging system (Azure Biosystems). For in vitro ubiquitination assays performed with Me-Ub, bands were visualized by the Odyssey CLx Imager (LI‑COR) after incubating the blots with the IRDye 800CW (LI-COR) secondary antibodies at 1:10,000 in Intercept Blocking Buffer (LI-COR) at room temperature for 1–2 h.
In general terms: Immunoblotting shows a protein as a band on a membrane.

In the next experiment the target is VCB (VHL:EloC:EloB) (Homo sapiens, UniProt P40337). The experiment can be described thus: Surface plasmon resonance, binary interaction with VCB. The settings on record: SPR, immobilised VCB, 20 °C, 1 to 1 kinetic model. The experiment is classed as binding. On the procedure: All SPR experiments in this paper were recorded on a Biacore S200 instrument; all protein captures and data collection were at 20 °C.
For binary interactions with G6374: a Xantec SAHC 200 M (streptavidin) chip was inserted into the instrument and primed into running buffer [50 mM HEPES (pH 7.4), 150 mM NaCl, 0.001% Tween 20, 0.2% PEG3350, 0.25 mM TCEP, and 2% DMSO]. Biotinylated human IRE1.KR protein was captured on FC2 to 2-4000 RU, biotinylated VHL in complex with Elongin B (VHL/EloB) was captured on FC4 to 1-2000 RU, data were collected, and all referenced to FC1. Affinity for G6374 was measured using a titration series, injected from low to high with an 8-point, 2-fold dilution dose response with a top concentration of 0.5 μM in both single cycle (single cycle kinetics (SCK)) and multi cycle kinetics (MCK) formats. For MCK experiments, an association time of 45 s and a dissociation time of 200 s with a flow rate of 50 μL/min. For SCK experiments, an association time of 45 s and a dissociation time of 2000 s with a flow rate of 50 μL/min were used. All data were analyzed using Insight software (Cytiva) using a 1 to 1 kinetic binding model.
Background: In SPR one partner is held on a chip, and binding of the other changes the refractive index at the surface.

The target in another experiment is T1, IRE1 E621A, E836A (Homo sapiens, UniProt O75460+P40337, E621A/E836A).
T1 construct: N2731; host or cells: HEK293T
The experiment can be described thus: NanoLuc signal IRE1 depletion, IRE1 E621A, E836A, HEK293T cells. The class given is cell-based. Particulars: E836A double mutant. As to the method: 8 × 10^5 293T cells per well were seeded in 6-well plates (Costar, #3516) and incubated at 37 °C, 5% CO2 for 6 h. A mixture of 0.2 µg ERN1 (IRE1)-NanoLuc Fusion Vector (Promega, NV1321), 2 µg HaloTag-VHL Fusion Vector (Promega, N2731), 6 µl FuGENE HD Transfection Reagent (Promega, E2311), and 100 µL Opti-MEM I reduced serum medium (Gibco, #31985062) per well was incubated at room temperature for 20 min before adding to cells. For expression of IRE1 mutants, site-directed mutagenesis was performed using the ERN1-NanoLuc Fusion Vector as the DNA template, and the transfection mixture was prepared in the same way as WT IRE1. After 18 h, cells from 6-well plates were trypsinized, resuspended in Opti-MEM I reduced serum medium, and reseeded into 96-well plates (Costar, #3917), with or without the addition of HaloTag NanoBRET 618 Ligand (Promega, G9801). After 18 h of incubation, a titration of G6374 (dilutions made in Opti-MEM I reduced serum medium) was added to the cells. After 2 h of G6374 treatment, NanoBRET Nano-Glo Substrate (Promega, N1571) was added to cells. The 96-well plates were imaged by GloMax Discover Microplate Reader (Promega, GM3000) with the default “BRET: NanoBRET 618” protocol (Donor: 450 BP; Acceptor: 600 LP; Integration: 0.3 s). Data analysis was performed according to the user manual.

Another experiment has as its target T2, TAO2 (Homo sapiens, UniProt Q9UL54).
T2 construct: endogenous in cells; host or cells: AMO1, KMS27
The experiment in a line: Immunoblot of TAO2 depletion. The experiment is classed as cell-based. Particulars: AMO1 and KMS27 cells, 4 h. As to the method: Cells were lysed in buffer containing 20 mM HEPES 7.2, 150 mM NaCl, and 1% Triton X-100, supplemented with fresh protease and phosphatase inhibitors (Invitrogen, #78440), cleared by centrifugation at 12,000 × g for 10 min, and analyzed by BCA protein assay (Thermo Fisher Scientific, #23227). Equal protein amounts were loaded, separated by SDS-PAGE, electrotransferred to nitrocellulose membranes using the iBLOT2 system (Invitrogen), and blocked in 5% nonfat milk solution for 60 min. Membranes were probed with primary antibodies at 1:1000 dilution in 5% milk at 4 °C overnight. Signal was detected using appropriate horseradish peroxidase (HRP)-conjugated secondary antibodies at 1:10,000 in 5% milk at room temperature for 1–2 h. Bands were visualized by the Azure 600 western blot imaging system (Azure Biosystems). For in vitro ubiquitination assays performed with Me-Ub, bands were visualized by the Odyssey CLx Imager (LI‑COR) after incubating the blots with the IRDye 800CW (LI-COR) secondary antibodies at 1:10,000 in Intercept Blocking Buffer (LI-COR) at room temperature for 1–2 h. […]
The kinome selectivity of G6374 was assessed at 1 μM for 1 h versus a panel of 220 human kinases (SelectScreen Kinase Profiling Services, Thermo Fisher Scientific). […]

Chain of VCB (VHL:EloC:EloB) (P40337 whole entry): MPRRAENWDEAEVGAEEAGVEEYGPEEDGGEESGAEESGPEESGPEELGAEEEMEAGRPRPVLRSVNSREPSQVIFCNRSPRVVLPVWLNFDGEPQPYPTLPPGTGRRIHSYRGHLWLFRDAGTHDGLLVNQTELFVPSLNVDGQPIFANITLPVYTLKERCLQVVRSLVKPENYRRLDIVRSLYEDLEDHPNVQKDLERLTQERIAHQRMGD
Chain of VCB (VHL:EloC:EloB) (Q15370 whole entry partner): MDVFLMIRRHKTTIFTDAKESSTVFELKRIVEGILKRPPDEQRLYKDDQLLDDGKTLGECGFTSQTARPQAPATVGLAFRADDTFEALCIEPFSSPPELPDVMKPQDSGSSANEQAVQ
Chain of VCB (VHL:EloC:EloB) (Q15369 whole entry partner): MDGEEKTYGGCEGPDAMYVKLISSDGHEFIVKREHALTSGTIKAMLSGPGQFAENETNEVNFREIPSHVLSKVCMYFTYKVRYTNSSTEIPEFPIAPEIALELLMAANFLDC
T1 sequence (O75460 19-977 E621A/E836A): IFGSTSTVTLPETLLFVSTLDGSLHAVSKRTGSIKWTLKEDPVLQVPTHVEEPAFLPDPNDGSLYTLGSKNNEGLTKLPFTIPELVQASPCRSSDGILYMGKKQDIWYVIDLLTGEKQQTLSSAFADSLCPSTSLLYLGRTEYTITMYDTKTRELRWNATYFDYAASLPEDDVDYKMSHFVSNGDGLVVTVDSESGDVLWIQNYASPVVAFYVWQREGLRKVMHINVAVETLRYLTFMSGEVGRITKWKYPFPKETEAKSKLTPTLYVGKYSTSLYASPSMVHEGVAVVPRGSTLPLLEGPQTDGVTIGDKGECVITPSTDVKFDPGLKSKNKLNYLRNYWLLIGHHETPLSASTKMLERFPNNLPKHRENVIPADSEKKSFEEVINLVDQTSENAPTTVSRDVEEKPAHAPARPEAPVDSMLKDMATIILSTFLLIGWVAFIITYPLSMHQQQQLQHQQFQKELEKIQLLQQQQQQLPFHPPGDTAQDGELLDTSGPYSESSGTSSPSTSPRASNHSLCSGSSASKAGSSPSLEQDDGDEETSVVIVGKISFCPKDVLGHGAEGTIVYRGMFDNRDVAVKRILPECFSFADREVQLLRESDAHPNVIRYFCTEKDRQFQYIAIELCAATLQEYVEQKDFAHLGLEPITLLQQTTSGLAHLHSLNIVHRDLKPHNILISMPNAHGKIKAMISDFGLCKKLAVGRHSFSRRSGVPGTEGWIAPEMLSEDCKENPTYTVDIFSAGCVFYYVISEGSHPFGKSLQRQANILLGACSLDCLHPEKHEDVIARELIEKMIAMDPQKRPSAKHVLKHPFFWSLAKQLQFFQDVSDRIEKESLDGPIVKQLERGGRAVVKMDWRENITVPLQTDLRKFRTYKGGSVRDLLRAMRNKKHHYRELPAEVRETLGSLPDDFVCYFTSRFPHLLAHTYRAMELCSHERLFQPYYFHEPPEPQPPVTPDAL
T1 sequence (P40337 whole entry): as the sequence (P40337 whole entry) above
T1 sequence (Q15369 whole entry partner): as the sequence (Q15369 whole entry partner) above
T1 sequence (Q15370 whole entry partner): as the sequence (Q15370 whole entry partner) above
T1 sequence (Q13617 whole entry partner): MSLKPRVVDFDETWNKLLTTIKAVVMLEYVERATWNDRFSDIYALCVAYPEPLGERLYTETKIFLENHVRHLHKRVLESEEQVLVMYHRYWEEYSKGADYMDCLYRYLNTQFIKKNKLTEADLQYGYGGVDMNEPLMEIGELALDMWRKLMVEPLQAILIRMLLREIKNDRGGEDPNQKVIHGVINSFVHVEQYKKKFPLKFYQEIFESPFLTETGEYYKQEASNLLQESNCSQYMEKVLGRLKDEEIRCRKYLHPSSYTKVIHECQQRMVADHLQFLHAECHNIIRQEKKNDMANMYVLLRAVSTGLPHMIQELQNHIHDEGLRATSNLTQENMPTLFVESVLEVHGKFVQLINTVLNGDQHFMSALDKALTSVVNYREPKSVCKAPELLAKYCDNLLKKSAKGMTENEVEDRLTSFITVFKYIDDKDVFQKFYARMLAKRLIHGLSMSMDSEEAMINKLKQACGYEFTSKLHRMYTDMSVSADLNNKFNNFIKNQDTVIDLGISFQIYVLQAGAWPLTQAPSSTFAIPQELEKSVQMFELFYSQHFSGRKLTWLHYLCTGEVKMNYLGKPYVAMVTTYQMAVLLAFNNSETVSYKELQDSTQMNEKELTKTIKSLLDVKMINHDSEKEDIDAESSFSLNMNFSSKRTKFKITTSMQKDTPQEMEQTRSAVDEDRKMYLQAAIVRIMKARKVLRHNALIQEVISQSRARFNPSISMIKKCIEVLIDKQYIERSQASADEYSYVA
T1 sequence (P62877 whole entry partner): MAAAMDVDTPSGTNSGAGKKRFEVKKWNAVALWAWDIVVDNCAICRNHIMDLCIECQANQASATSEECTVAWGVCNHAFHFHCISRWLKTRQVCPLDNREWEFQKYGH
Chain of IRE1 (O75460 19-977): as the sequence (O75460 19-977 E621A/E836A) above, with A603E, A818E counted along it
T2 sequence (Q9UL54 whole entry): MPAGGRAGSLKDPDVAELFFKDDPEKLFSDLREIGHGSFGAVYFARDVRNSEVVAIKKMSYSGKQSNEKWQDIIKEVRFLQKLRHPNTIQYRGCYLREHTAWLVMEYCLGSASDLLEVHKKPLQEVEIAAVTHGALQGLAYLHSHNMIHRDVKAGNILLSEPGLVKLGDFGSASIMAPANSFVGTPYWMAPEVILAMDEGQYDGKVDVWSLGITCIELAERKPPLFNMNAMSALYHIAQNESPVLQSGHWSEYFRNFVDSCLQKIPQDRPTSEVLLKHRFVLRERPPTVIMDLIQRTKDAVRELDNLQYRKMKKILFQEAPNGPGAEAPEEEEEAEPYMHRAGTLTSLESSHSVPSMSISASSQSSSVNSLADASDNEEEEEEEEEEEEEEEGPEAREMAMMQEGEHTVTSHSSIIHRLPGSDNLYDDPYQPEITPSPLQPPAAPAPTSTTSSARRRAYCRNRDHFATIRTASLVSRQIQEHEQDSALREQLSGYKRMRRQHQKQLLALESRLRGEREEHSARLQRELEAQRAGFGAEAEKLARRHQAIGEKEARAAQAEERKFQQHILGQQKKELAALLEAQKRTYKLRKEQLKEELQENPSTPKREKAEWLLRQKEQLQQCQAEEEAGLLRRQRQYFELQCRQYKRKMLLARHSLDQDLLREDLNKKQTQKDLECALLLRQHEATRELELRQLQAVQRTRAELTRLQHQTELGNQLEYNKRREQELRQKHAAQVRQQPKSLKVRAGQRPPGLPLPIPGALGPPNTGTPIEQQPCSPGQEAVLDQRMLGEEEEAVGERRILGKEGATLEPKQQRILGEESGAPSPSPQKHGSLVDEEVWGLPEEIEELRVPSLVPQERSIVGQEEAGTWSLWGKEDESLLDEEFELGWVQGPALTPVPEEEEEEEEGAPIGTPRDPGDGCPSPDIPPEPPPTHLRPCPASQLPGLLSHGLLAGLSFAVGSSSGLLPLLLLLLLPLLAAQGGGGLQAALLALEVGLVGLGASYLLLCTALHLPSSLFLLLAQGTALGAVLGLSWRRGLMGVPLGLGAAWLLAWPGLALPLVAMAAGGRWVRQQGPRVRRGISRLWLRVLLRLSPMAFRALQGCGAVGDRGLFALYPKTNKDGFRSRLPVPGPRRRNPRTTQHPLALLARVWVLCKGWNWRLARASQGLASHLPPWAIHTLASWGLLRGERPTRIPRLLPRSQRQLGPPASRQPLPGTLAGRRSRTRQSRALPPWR

Take `Cc1ncsc1-c1ccc(CNC(=O)[C@@H]2C[C@@H](O)CN2C(=O)[C@@H](NC(=O)CCCCN2CCN([C@H]3CC[C@H](Nc4ncc5ccc(=O)n(C(C)C)c5n4)CC3)CC2)C(C)(C)C)cc1` [G6374]: the Dmax at IRE1 (KMS-27, immunoblot quantification) worked out at 98%; at IRE1 E621A, E836A (HEK-293T), 67%. For the same molecule, the DC50 on IRE1 (immunoblot quantification) was 130 nM; on IRE1 E621A, E836A, 110 ± 30 nM. Further, binding on VCB (VHL:EloC:EloB) was put at a Kd of 90.2 nM. The same molecule yielded a kd on VCB (VHL:EloC:EloB) of 0.0477 s⁻¹. Besides, the kon on VCB (VHL:EloC:EloB) (read-out: ka) came to 514000 M⁻¹ s⁻¹. At TAO2, the “depletion of TAO2” value is “did not deplete TAO2”.

Broadly, the Kd is the equilibrium constant for the complex coming apart. Lower therefore signals higher affinity.
